Values of other authors in patent US20240423930A1, “PHARMACEUTICAL COMPOSITION AND METHOD FOR TREATING CARDIOVASCULAR DISEASES” (priority 2020, published 2024).

Tested on: furin
Details: ectopic expression of the inhibitor; in vitro digestion assay

alpha (1)-antitrypsin Portland [alpha(1)-AT-PDX]
blocked TGF-beta1 processing mediated by endogenous enzymes: 80%
